Assay: mn = molality of the nth substance listed, in mol/kg
Conditions: 100 kPa, Liquid; for viscosity: Falling or rolling sphere viscometry; for mass density: Vibrating tube method

O=S(=O)(O)O [sulfuric acid] + O
Conditions | mass density, 303.15 K [kg/m3] | mass density, 308.15 K [kg/m3] | mass density, 313.15 K [kg/m3] | mass density, 318.15 K [kg/m3] | viscosity, 303.15 K [mPa·s] | viscosity, 308.15 K [mPa·s] | viscosity, 313.15 K [mPa·s] | viscosity, 318.15 K [mPa·s]
m1 = 0.05 | 998.96 | 997.29 | 995.42 | 993.38 | 0.8093 | 0.7303 | 0.6585 | 0.6063
m1 = 0.1 | 1002.07 | 1000.35 | 998.45 | 996.37 | 0.8127 | 0.7339 | 0.6663 | 0.6087
m1 = 0.1498 | 1005.1 | 1003.35 | 1001.41 | 999.3 | 0.8218 | 0.7412 | 0.6726 | 0.6141
m1 = 0.1997 | 1008.12 | 1006.33 | 1004.36 | 1002.21 | 0.8307 | 0.7497 | 0.6808 | 0.6219
m1 = 0.2501 | 1011.07 | 1009.25 | 1007.25 | 1005.09 | 0.8376 | 0.7567 | 0.6869 | 0.6274
m1 = 0.2999 | 1014.11 | 1012.25 | 1010.22 | 1008.03 | 0.8489 | 0.7652 | 0.698 | 0.6362
m1 = 0.3312 | 1015.94 | – | – | – | 0.8561 | 0.7753 | 0.7043 | 0.6443
m1 = 0.3996 | 1019.95 | 1018.02 | 1015.94 | 1013.7 | 0.8615 | 0.7799 | 0.7078 | 0.6502
m1 = 0.5001 | 1025.74 | 1023.74 | 1021.61 | 1019.32 | 0.8719 | 0.7884 | 0.716 | 0.6543
m1 = 0.6672 | 1035.36 | – | – | – | 0.9256 | 0.8371 | 0.7631 | 0.6978
m1 = 0.9962 | 1053.74 | – | – | – | 0.9448 | 0.8554 | 0.7748 | 0.7101
m1 = 1.331 | 1071.78 | – | – | – | 1.026 | 0.9337 | 0.8534 | 0.7819
m1 = 1.669 | 1089.37 | – | – | – | 1.073 | 0.9775 | 0.8905 | 0.8167
m1 = 2 | 1106.08 | – | – | – | 1.123 | 1.016 | 0.9243 | 0.8473
m1 = 2.327 | 1122.01 | – | – | – | 1.179 | 1.059 | 0.9706 | 0.8914
m1 = 2.667 | 1138.64 | – | – | – | 1.244 | 1.116 | 1.019 | 0.9455
m1 = 2.994 | 1155.01 | – | – | – | 1.319 | 1.188 | 1.077 | 0.9872
m1 = 3.33 | 1167.41 | – | – | – | 1.374 | 1.238 | 1.125 | 1.027
m1 = 3.667 | 1181.92 | – | – | – | 1.429 | 1.29 | 1.171 | 1.07

From the NIST ThermoML archive (doi:10.1016/j.jct.2019.02.020)
